Measurements published in ChEMBL document CHEMBL1154739, “Synthesis and AChE inhibitory activity of new chiral tetrahydroacridine analogues from terpenic cyclanones” (Eur J Med Chem, 2010).

The compounds below were run against T1, Acetylcholinesterase (Rattus norvegicus, UniProt P37136).
T1 sequence (P37136 whole entry): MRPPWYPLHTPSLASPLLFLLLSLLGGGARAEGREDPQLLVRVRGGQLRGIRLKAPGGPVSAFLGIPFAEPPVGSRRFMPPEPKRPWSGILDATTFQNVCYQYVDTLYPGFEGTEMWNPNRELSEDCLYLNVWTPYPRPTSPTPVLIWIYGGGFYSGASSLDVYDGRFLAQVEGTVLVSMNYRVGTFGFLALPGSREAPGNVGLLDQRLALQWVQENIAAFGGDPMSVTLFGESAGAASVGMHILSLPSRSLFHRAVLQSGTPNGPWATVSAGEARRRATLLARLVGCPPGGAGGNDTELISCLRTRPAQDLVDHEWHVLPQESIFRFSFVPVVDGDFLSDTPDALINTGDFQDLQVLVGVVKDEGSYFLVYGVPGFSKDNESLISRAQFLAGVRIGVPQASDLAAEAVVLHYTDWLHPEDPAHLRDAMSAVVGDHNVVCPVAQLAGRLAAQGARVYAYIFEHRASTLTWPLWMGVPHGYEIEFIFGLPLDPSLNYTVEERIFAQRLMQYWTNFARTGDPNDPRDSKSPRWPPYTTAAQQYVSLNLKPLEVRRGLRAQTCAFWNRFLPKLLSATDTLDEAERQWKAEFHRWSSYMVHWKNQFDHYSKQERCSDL
Description: Inhibition of AChE from rat cortex by Ellman assay
In the case of `C[C@@H]1c2c(nc3ccccc3c2N)[C@H]2C[C@@H]1C2(C)C`, the IC50 is reported as 2620 nM.
Work on `C[C@@H]1CCc2c(nc3ccccc3c2N)C1` yielded an IC50 of 1380 nM.
For `CC(C)[C@H]1CC[C@H](C(C)C)c2c1nc1ccccc1c2N`, the IC50 was 7220 nM.
Compound `CC1(C)[C@H]2Cc3c(nc4ccccc4c3N)[C@@H]1C2` has an IC50 of 1930 nM.
`CC(C)[C@H]1CCc2c(nc3ccccc3c2N)C1` gave an IC50 of 816 nM.
`C[C@H]1CC[C@H](C(C)(C)C)c2nc3ccccc3c(N)c21` gave an IC50 of 1350 nM.
In the case of `C[C@H]1CC(=O)C(C)(C)c2nc3ccccc3c(N)c2C1`, the IC50 is reported as 288 nM.
`C[C@H]1Cc2nc3ccccc3c(N)c2C1` was tested, and the IC50 was 61 nM.
Compound `CC(C)[C@@H]1Cc2nc3ccccc3c(N)c2C1` has an IC50 of 2450 nM.
